In US20160101148A1, “TREATMENT AND PREVENTION OF BACTERIAL SKIN INFECTIONS USING ORITAVANCIN” (priority 2013, published 2016):
In brackets after ≈: the same amount, converted by molar mass. Like-named read-outs stand apart in the source and are kept apart here.

Tests used:
[1] = system: S. aureus strains (14 mecC MRSA, 2 mecA MRSA, ATCC 29213 MSSA); test: In vitro time-kill assays at free peak and free trough concentrations; format: cell-based, Staphylococcus aureus; details: for Time to cidality (≧3 log decrease): daptomycin ƒCmax 4 mg/L; for Change in cell density at 24 h relative to starting inoculum: daptomycin ƒCmin 0.5 mg/L
Description: Viable cell count was determined by serial dilution plating, including the use of 25 g/L charcoal suspension to limit antibiotic carryover. […] Time-kill assays were repeated at least twice independently; results presented are from a representative experiment.
Doubling dilution concentrations of comparator agents were likewise chosen to approximate their fCmax and fCmin levels in plasma when administered at approved dosages for complicated skin and skin structure infections, using pharmacokinetic data and protein binding values from their respective package inserts (DAP [Cubicin®]; LZD [Zyvox®]; VAN [Vancocin®]; Table 3).

[2] = system: S. aureus strains (14 mecC MRSA, 2 mecA MRSA, ATCC 29213 MSSA); test: Broth microdilution MIC determination; format: cell-based, Staphylococcus aureus; details: Staphylococcus aureus; for MIC: read-out: MIC; for MIC90: mecC strains, read-out: MIC90
Description: The S. aureus (SA) strains used in this study were: ATCC 43300 (mecA methicillin-resistant SA [MRSA]); ATCC 33591 (mecA MRSA), ATCC 29213 (methicillin-susceptible SA; quality control strain) and 14 mecC MRSA obtained from the Staten Serum Institute (Copenhagen, Denmark).
Tests with oritavancin included polysorbate-80 (final test concentration of 0.002%) as described (CLSI 2012a; Arhin et al., 2008). Tests with daptomycin included CaCl2 at a concentration of 50 mg/L. MICs were read after 24 h incubation.

[3] = ATCC 29213 / ATCC 33591 / MRSA / MSSA, ATCC 33591 MRSA (mecA)
[4] = ATCC 29213 / ATCC 43300 / MRSA / MSSA, ATCC 43300 MRSA (mecA)

For CCCCCCCCCC(=O)N[C@@H](Cc1c[nH]c2ccccc12)C(=O)N[C@H](CC(N)=O)C(=O)N[C@@H](CC(=O)O)C(=O)N[C@@H]1C(=O)NCC(=O)N[C@@H](CCCN)C(=O)N[C@@H](CC(=O)O)C(=O)N[C@H](C)C(=O)N[C@@H](CC(=O)O)C(=O)NCC(=O)N[C@H](CO)C(=O)N[C@@H]([C@H](C)CC(=O)O)C(=O)N[C@@H](CC(=O)c2ccccc2N)C(=O)O[C@@H]1C [Daptomycin, daptomycin], the “Time to cidality (≧3 log decrease)” value ([1]; 57147 (mecC)) was 1-2 h, the “Change in cell density at 24 h relative to starting inoculum” value ([1]; 57147 (mecC)) was “+2.7 log CFU/mL” and the “Time to cidality (≧3 log decrease)” value ([1]; 70611 (mecC)) was 1-2 h. For the same compound, the “Change in cell density at 24 h relative to starting inoculum” value ([1]; 70611 (mecC)) was “+1.5 log CFU/mL”, the “Change in cell density at 24 h relative to starting inoculum” value ([1]; 73348 (mecC)) was “+2.6 log CFU/mL” and the “Time to cidality (≧3 log decrease)” value ([1]; 73415 (mecC)) was 2-4 h. For the same compound, the “Change in cell density at 24 h relative to starting inoculum” value ([1]; 73415 (mecC)) was “+1.5 log CFU/mL”, the “Time to cidality (≧3 log decrease)” value ([1]; 73617 (mecC)) was 1-2 h and the “Change in cell density at 24 h relative to starting inoculum” value ([1]; 73617 (mecC)) was “+3.4 log CFU/mL”. The “Time to cidality (≧3 log decrease)” value ([1]; 73829 (mecC)) was 1-2 h, the “Change in cell density at 24 h relative to starting inoculum” value ([1]; 73829 (mecC)) was “+2.1 log CFU/mL” and the “Time to cidality (≧3 log decrease)” value ([1]; 75814 (mecC)) was 1-2 h. The “Change in cell density at 24 h relative to starting inoculum” value ([1]; 75814 (mecC)) was “+3.6 log CFU/mL”, the “Time to cidality (≧3 log decrease)” value ([1]; 76918 (mecC)) was 1-2 h and the “Change in cell density at 24 h relative to starting inoculum” value ([1]; 76918 (mecC)) was “+1.5 log CFU/mL”. For the same compound, the “Time to cidality (≧3 log decrease)” value ([1]; 77431 (mecC)) was 1-2 h, the “Change in cell density at 24 h relative to starting inoculum” value ([1]; 77431 (mecC)) was “+1.9 log CFU/mL” and the “Change in cell density at 24 h relative to starting inoculum” value ([1]; 77601 (mecC)) was “+0.1 log CFU/mL”. For the same compound, the “Time to cidality (≧3 log decrease)” value ([1]; 77950 (mecC)) was 1-2 h, the “Change in cell density at 24 h relative to starting inoculum” value ([1]; 77950 (mecC)) was “+0.9 log CFU/mL” and the “Time to cidality (≧3 log decrease)” value ([1]; 77964 (mecC)) was 1-2 h. For the same compound, the “Change in cell density at 24 h relative to starting inoculum” value ([1]; 77964 (mecC)) was “+1.2 log CFU/mL”, the “Time to cidality (≧3 log decrease)” value ([1]; 78085 (mecC)) was 2-4 h and the “Change in cell density at 24 h relative to starting inoculum” value ([1]; 78085 (mecC)) was “+1.5 log CFU/mL”. For the same compound, the “Change in cell density at 24 h relative to starting inoculum” value ([1]; 78651 (mecC)) was “+1.6 log CFU/mL”, the “Time to cidality (≧3 log decrease)” value ([1]; ATCC 29213 (MSSA)) was 2-4 h and the “Change in cell density at 24 h relative to starting inoculum” value ([1]; ATCC 29213 (MSSA)) was “+3.9 log CFU/mL”. For the same compound, the “Change in cell density at 24 h relative to starting inoculum” value ([1]; ATCC 33591 (mecA)) was “+3.8 log CFU/mL”, the “Time to cidality (≧3 log decrease)” value ([1]; ATCC 43300 (mecA)) was 1-2 h and the “Change in cell density at 24 h relative to starting inoculum” value ([1]; ATCC 43300 (mecA)) was “+3.6 log CFU/mL”. The “Activity in time-kill assay” value ([1]; S. aureus strains, fCmin) was “little to no effect or was bacteriostatic”, the MIC ([2]; 57147 MRSA (mecC)) was 0.5 µg/mL (≈ 0.309 µM) and the MIC ([2]; 70611 MRSA (mecC)) was 0.5 µg/mL (≈ 0.309 µM). The MIC ([2]; 73348 MRSA (mecC)) was 0.5 µg/mL (≈ 0.309 µM), the MIC ([2]; 73415 MRSA (mecC)) was 1 µg/mL (≈ 0.617 µM) and the MIC ([2]; 73617 MRSA (mecC)) was 1 µg/mL (≈ 0.617 µM). For the same compound, the MIC ([2]; 73829 MRSA (mecC)) was 0.5 µg/mL (≈ 0.309 µM), the MIC ([2]; 75814 MRSA (mecC)) was 0.5 µg/mL (≈ 0.309 µM) and the MIC ([2]; 76918 MRSA (mecC)) was 0.5 µg/mL (≈ 0.309 µM). The MIC ([2]; 77431 MRSA (mecC)) was 1 µg/mL (≈ 0.617 µM), the MIC ([2]; 77601 MRSA (mecC)) was 0.5 µg/mL (≈ 0.309 µM) and the MIC ([2]; 77950 MRSA (mecC)) was 0.5 µg/mL (≈ 0.309 µM). For the same compound, the MIC ([2]; 77964 MRSA (mecC)) was 0.5 µg/mL (≈ 0.309 µM), the MIC ([2]; 78085 MRSA (mecC)) was 1 µg/mL (≈ 0.617 µM) and the MIC ([2]; 78651 MRSA (mecC)) was 0.5 µg/mL (≈ 0.309 µM). For the same compound, the MIC ([2]; ATCC 29213 (MSSA)) was 0.5 µg/mL (≈ 0.309 µM), the MIC [2, 3] was 1 µg/mL (≈ 0.617 µM) and the MIC [2, 4] was 0.5 µg/mL (≈ 0.309 µM). It also gave an MIC ([2]; all strains tested) of 0.5 to 1 µg/mL (≈ 0.309 to 0.617 µM) and an MIC90 [2] of 1 µg/mL (≈ 0.617 µM).
In the case of CC(=O)NC[C@H]1CN(c2ccc(N3CCOCC3)c(F)c2)C(=O)O1 [Linezolid, linezolid], the “Activity in time-kill assay” value ([1]; all tested strains, both fCmin and fCmax) is reported as “little to no effect or was bacteriostatic”, the MIC ([2]; 57147 MRSA (mecC)) is reported as 2 µg/mL (≈ 5.93 µM) and the MIC ([2]; 70611 MRSA (mecC)) is reported as 2 µg/mL (≈ 5.93 µM). The MIC ([2]; 73348 MRSA (mecC)) was 2 µg/mL (≈ 5.93 µM), the MIC ([2]; 73415 MRSA (mecC)) was 2 µg/mL (≈ 5.93 µM) and the MIC ([2]; 73617 MRSA (mecC)) was 2 µg/mL (≈ 5.93 µM). The MIC ([2]; 73829 MRSA (mecC)) was 2 µg/mL (≈ 5.93 µM), the MIC ([2]; 75814 MRSA (mecC)) was 2 µg/mL (≈ 5.93 µM) and the MIC ([2]; 76918 MRSA (mecC)) was 2 µg/mL (≈ 5.93 µM). It also gave an MIC ([2]; 77431 MRSA (mecC)) of 2 µg/mL (≈ 5.93 µM), an MIC ([2]; 77601 MRSA (mecC)) of 2 µg/mL (≈ 5.93 µM) and an MIC ([2]; 77950 MRSA (mecC)) of 2 µg/mL (≈ 5.93 µM). The MIC ([2]; 77964 MRSA (mecC)) was 2 µg/mL (≈ 5.93 µM), the MIC ([2]; 78085 MRSA (mecC)) was 2 µg/mL (≈ 5.93 µM) and the MIC ([2]; 78651 MRSA (mecC)) was 2 µg/mL (≈ 5.93 µM). The MIC ([2]; ATCC 29213 (MSSA)) was 2 µg/mL (≈ 5.93 µM), the MIC [2, 3] was 2 µg/mL (≈ 5.93 µM) and the MIC [2, 4] was 1 µg/mL (≈ 2.96 µM). It also gave an MIC ([2]; all strains tested) of 1 to 2 µg/mL (≈ 2.96 to 5.93 µM) and an MIC90 [2] of 2 µg/mL (≈ 5.93 µM).
